The molecules below were run against ROCK2 (human) (UniProt O75116) (assay: Assessment of ROCK2 Kinase Activity).
Sequence of ROCK2 (human) (O75116 whole entry, looked up): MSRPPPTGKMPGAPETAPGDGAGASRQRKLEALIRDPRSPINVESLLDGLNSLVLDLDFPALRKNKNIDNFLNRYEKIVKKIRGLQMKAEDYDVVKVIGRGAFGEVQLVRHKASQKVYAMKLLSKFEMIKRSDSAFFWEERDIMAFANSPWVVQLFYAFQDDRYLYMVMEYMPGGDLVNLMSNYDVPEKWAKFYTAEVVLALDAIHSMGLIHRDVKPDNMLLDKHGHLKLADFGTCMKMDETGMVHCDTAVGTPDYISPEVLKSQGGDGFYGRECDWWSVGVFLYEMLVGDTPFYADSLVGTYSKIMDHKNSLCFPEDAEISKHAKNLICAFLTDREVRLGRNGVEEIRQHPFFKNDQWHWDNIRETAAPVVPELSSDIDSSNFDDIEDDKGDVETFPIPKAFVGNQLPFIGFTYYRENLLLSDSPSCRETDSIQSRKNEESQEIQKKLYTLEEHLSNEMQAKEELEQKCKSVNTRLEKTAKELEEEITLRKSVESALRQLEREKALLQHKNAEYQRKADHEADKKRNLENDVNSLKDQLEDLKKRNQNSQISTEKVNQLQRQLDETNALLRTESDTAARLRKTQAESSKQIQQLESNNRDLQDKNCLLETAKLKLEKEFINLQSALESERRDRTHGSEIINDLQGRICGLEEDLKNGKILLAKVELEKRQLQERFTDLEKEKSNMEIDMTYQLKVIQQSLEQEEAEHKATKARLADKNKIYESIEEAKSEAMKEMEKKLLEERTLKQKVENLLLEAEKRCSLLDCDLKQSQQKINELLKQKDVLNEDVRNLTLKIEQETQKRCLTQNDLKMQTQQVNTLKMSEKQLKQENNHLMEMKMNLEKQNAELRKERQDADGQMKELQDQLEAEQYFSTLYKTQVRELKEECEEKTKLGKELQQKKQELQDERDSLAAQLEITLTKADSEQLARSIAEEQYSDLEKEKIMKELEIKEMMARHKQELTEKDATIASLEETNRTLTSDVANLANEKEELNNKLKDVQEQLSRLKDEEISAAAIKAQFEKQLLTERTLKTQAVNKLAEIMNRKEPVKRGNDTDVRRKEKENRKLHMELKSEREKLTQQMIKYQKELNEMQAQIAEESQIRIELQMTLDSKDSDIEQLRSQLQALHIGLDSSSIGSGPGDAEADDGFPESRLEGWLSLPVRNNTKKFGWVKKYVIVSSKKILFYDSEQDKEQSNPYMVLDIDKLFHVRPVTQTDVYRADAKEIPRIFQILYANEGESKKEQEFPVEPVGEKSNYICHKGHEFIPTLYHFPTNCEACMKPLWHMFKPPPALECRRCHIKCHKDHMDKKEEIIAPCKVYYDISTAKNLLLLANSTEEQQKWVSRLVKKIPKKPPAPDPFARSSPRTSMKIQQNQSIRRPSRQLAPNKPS

Row | SMILES | IC50 [nM]
1 | NCC1(c2ccc(Cl)cc2)CCC(Oc2cc3cc[nH]c(=O)c3cc2Cl)CC1 (stereo unspecified) | ≤ 1000
2 | NCC1(c2ccc(Cl)c(Cl)c2)CCC(Oc2cc3cc[nH]c(=O)c3cc2Cl)CC1 (stereo unspecified) | ≤ 1000
3 | COc1ccc(C2(CN)CCC(Oc3cc4cc[nH]c(=O)c4cc3Cl)CC2)cc1OC (stereo unspecified) | ≤ 1000
4 | NCC1(c2ccccc2)CCC(Oc2cc3cc[nH]c(=O)c3cc2Cl)CC1 (stereo unspecified) | ≤ 1000
5 | NCC1(c2ccccc2)CCC(Oc2cc3ccncc3cc2Cl)CC1 (stereo unspecified) | ≤ 1000
6 | NCC1(c2cccc(Cl)c2)CCC(Oc2cc3cc[nH]c(=O)c3cc2Cl)CC1 (stereo unspecified) | ≤ 1000

Second part, the molecule after the results:

Row | IC50 [nM] | SMILES
7 | ≤ 1000 | NC1(CC(O)CO)CCC(Oc2cc3cc[nH]c(=O)c3cc2Cl)CC1 (stereo unspecified)
8 | ≤ 1000 | NCC1(c2ccc(F)cc2)CCC(Oc2cc3cc[nH]c(=O)c3cc2Cl)CC1 (stereo unspecified)
9 | ≤ 1000 | N[C@]1(C2CC2)CC[C@H](Oc2cc3cc[nH]c(=O)c3cc2Cl)CC1
10 | ≤ 1000 | C=CCC1(N)CCC(Oc2cc3cc[nH]c(=O)c3cc2Cl)CC1 (stereo unspecified)
11 | ≤ 1000 | COc1ccc(C2(CN)CCC(Oc3cc4cc[nH]c(=O)c4cc3Cl)CC2)cc1 (stereo unspecified)
